The results in this text go back to US20250171459A1, “2-METHYL-4',5'-DIHYDROSPIRO[PIPERIDINE-4,7'-THIENO[2,3-C]PYRAN] DERIVATIVES AS INHIBITORS OF APOL1 AND METHODS OF USING SAME” (Vertex Pharmaceuticals Incorporated, priority 2022, published 2025).

pIC50: −log10 of the molar value.

In the experiment the target is T1, APOL1 (Homo sapiens, UniProt O14791).
T1 sequence (O14791 1-398 S342G/I384M): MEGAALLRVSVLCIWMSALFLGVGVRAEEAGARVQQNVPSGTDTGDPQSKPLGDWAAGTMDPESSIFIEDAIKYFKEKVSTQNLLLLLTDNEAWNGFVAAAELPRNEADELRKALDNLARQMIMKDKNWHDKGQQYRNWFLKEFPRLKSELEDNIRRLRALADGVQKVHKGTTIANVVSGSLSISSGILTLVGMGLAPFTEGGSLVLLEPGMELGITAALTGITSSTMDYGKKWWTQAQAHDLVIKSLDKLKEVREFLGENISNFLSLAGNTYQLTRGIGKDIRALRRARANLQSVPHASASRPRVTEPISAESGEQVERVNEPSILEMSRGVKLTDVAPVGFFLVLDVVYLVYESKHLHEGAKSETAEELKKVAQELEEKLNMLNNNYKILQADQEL
Description: MultiTox-Fluor Multiplex Cytotoxicity Assay in tet-inducible APOL1 T-REx-HEK293 cells (cell rescue, ratio of dead to live cells). Particulars: tet-inducible transgenic APOL1 T-REx-HEK293 cell lines, 50 ng/mL tet, 24 hours; read-out: IP50 (i.e., IC50 for cell proliferation). It counts as cell-based. The procedure, abridged: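 T-REx-HEK293 cells with tet-inducible APOL1 were treated with compound (10 μM top, 10-point 3-fold dilution, duplicate) plus 50 ng/mL tetracycline for 24 h at 37° C, in DMEM with 2% tet-free FBS. MultiTox-Fluor protease signals gave a dead/live ratio, normalized to no tet (100% viability) and tet alone (0%).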

On to `C[C@H]1C[C@@]2(CCN1Cc1cccnc1)OCCc1c2sc(Cl)c1CO` [Compound 757], for which the pIC50 was above 7.00. `C[C@H]1C[C@@]2(CCN1Cc1ccccn1)OCCc1c2sc(Cl)c1CO` [Compound 758]: the pIC50 was 6.00 to 6.30. The value for `CC(C)Cn1cc(CN2CC[C@]3(C[C@@H]2C)OCCc2c3sc(Cl)c2CO)cn1` [Compound 759, [(2′S, 7R)-2-chloro-1′-[(1-isobutylpyrazol-4-yl)methyl]-2′-methyl-spiro[4,5-dihydrothieno[2,3-c]pyran-7,4′-piperidine]-3-yl]methanol] was 6.30 to 7.00. In the case of `CCn1cc(CN2CC[C@]3(C[C@@H]2C)OCCc2c3sc(Cl)c2CO)cn1` [Compound 760] it was 6.30 to 7.00. The value for `C[C@H]1C[C@@]2(CCN1Cc1cnn(CC3CCOCC3)c1)OCCc1c2sc(Cl)c1CO` [Compound 761] was 6.30 to 7.00. With `COCc1c(Cl)sc2c1CCO[C@@]21CCN(Cc2cnn(CCS(C)(=O)=O)c2)[C@@H](C)C1` [Compound 762, (2′S, 7R)-2-chloro-3-(methoxymethyl)-2′-methyl-1′-[[1-(2-methylsulfonylethyl)pyrazol-4-yl]methyl]spiro[4,5-dihydrothieno[2,3-c]pyran-7,4′-piperidine]], the pIC50 was above 7.00. The value for `COCc1c(C(F)F)sc2c1CCO[C@@]21CCN(Cc2cnn(CCS(C)(=O)=O)c2)[C@@H](C)C1` [Compound 763, (2′S, 7R)-2-(difluoromethyl)-3-(methoxymethyl)-2′-methyl-1′-[[1-(2-methylsulfonylethyl)pyrazol-4-yl]methyl]spiro[4,5-dihydrothieno[2,3-c]pyran-7,4′-piperidine]] was above 7.00; that for `C[C@H]1C[C@@]2(CCN1Cc1cnn(CCS(C)(=O)=O)c1)OCCc1c2sc(C(F)F)c1CO` [Compound 764, [(2′S, 7R)-2-(difluoromethyl)-2′-methyl-1′-[[1-(2-methylsulfonylethyl)pyrazol-4-yl]methyl]spiro[4,5-dihydrothieno[2,3-c]pyran-7,4′-piperidine]-3-yl]methanol] was above 7.00.

For the compound `Cc1sc2c(c1CO)CCO[C@@]21CCN(Cc2cnn(CCS(C)(=O)=O)c2)[C@@H](C)C1` [Compound 765, [(2′S, 7R)-2,2′-dimethyl-1′-[[1-(2-methylsulfonylethyl)pyrazol-4-yl]methyl]spiro[4,5-dihydrothieno[2,3-c]pyran-7,4′-piperidine]-3-yl]methanol], the pIC50 was above 7.00.

As to `C[C@H]1C[C@@]2(CCN1Cc1cccc(Cl)c1O)OC[C@H](O)c1cc(Cl)sc12` [Compound 766, (2′S,4R,7R)-2-chloro-1′-[(3-chloro-2-hydroxy-phenyl)methyl]-2′-methyl-spiro[4,5-dihydrothieno[2,3-c]pyran-7,4′-piperidine]-4-ol], the pIC50 is 6.00 to 6.30. The value for `C[C@H]1C[C@@]2(CCN1Cc1cnn(CCS(C)(=O)=O)c1)OCC(O)c1cc(Cl)sc12` (stereo partly drawn) [Compound 767, (2′S,7R)-2-chloro-2′-methyl-1′-[[1-(2-methylsulfonylethyl)pyrazol-4-yl]methyl]spiro[4,5-dihydrothieno[2,3-c]pyran-7,4′-piperidine]-4-ol] was above 7.00; that for `Cc1ncccc1CN1CC[C@]2(C[C@@H]1C)OC[C@H](O)c1cc(Cl)sc12` [Compound 770] was 6.30 to 7.00. The value for `C[C@H]1C[C@@]2(CCN1Cc1cccc(OCC(N)=O)c1)OC[C@H](O)c1cc(Cl)sc12` [Compound 771] was 6.30 to 7.00; that for `COc1ccc(CN2CC[C@]3(C[C@@H]2C)OC[C@H](O)c2cc(Cl)sc23)cc1OCC(N)=O` [Compound 772] was above 7.00. The value for `COc1cc(OCC(N)=O)ccc1CN1CC[C@]2(C[C@@H]1C)OC[C@H](O)c1cc(Cl)sc12` [Compound 773] was above 7.00; that for `C[C@H]1C[C@@]2(CCN1Cc1cc(F)cc(F)c1O)OC[C@H](O)c1cc(Cl)sc12` [Compound 774] was 6.00 to 6.30. As for `C[C@H]1C[C@@]2(CCN1Cc1ccc(OCCO)cc1)OC[C@H](O)c1cc(Cl)sc12` [Compound 775], the pIC50 was above 7.00.

Take `COc1cc(CN2CC[C@]3(C[C@@H]2C)OC[C@H](O)c2cc(Cl)sc23)ccc1OCC(N)=O` [Compound 776]: the pIC50 was above 7.00. In the case of `C[C@H]1C[C@@]2(CCN1Cc1ccc(N3CCCC3=O)cc1)OC[C@H](O)c1cc(Cl)sc12` [Compound 777] it was above 7.00. Turning to `C[C@H]1C[C@@]2(CCN1Cc1cnccn1)OC[C@H](O)c1cc(Cl)sc12` [Compound 778], the pIC50 is 6.00 to 6.30.

With `C[C@H]1C[C@@]2(CCN1CCC1CCOCC1)OC[C@H](O)c1cc(Cl)sc12` [Compound 779], the pIC50 was 6.00 to 6.30. In the case of `C[C@H]1C[C@@]2(CCN1Cc1ccc(NS(C)(=O)=O)cc1)OC[C@H](O)c1cc(Cl)sc12` [Compound 780] it was above 7.00; in that of `Cc1cc(CN2CC[C@]3(C[C@@H]2C)OC[C@H](O)c2cc(Cl)sc23)nn1C` [Compound 781], 6.00 to 6.30.

As to `COc1cccc(CN2CC[C@]3(C[C@@H]2C)OC[C@H](O)c2cc(Cl)sc23)n1` [Compound 782], the pIC50 was 6.00 to 6.30. The value for `COc1cnc(CN2CC[C@]3(C[C@@H]2C)OC[C@H](O)c2cc(Cl)sc23)cn1` [Compound 783] was 6.30 to 7.00; that for `C[C@H]1C[C@@]2(CCN1Cc1cncc(F)c1)OC[C@H](O)c1cc(Cl)sc12` [Compound 784] was 6.30 to 7.00.

`CC(O)CCN1CC[C@]2(C[C@@H]1C)OC[C@H](O)c1cc(Cl)sc12` (some centres unmarked) [Compound 785]: the pIC50 was 6.00 to 6.30.

For `C[C@H]1C[C@@]2(CCN1Cc1cn3c(n1)CCC3)OC[C@H](O)c1cc(Cl)sc12` [Compound 786], the pIC50 was 6.00 to 6.30. In the case of `C[C@H]1C[C@@]2(CCN1Cc1ccnn1C)OC[C@H](O)c1cc(Cl)sc12` [Compound 787] it was 6.00 to 6.30; in that of `Cc1ccc(CN2CC[C@]3(C[C@@H]2C)OC[C@H](O)c2cc(Cl)sc23)c(C)n1` [Compound 788], 6.30 to 7.00. The value for `C[C@H]1C[C@@]2(CCN1CC1CCOCC1)OC[C@H](O)c1cc(Cl)sc12` [Compound 789] was 6.00 to 6.30; that for `C[C@H]1C[C@@]2(CCN1Cc1cn(-c3ncccn3)cn1)OC[C@H](O)c1cc(Cl)sc12` [Compound 790] was 6.30 to 7.00. In the case of `C[C@H]1C[C@@]2(CCN1Cc1ccc(O)nc1)OC[C@H](O)c1cc(Cl)sc12` [Compound 791], the pIC50 is above 7.00. The value for `C[C@H]1C[C@@]2(CCN1Cc1ccc(F)cn1)OC[C@H](O)c1cc(Cl)sc12` [Compound 792] was 6.30 to 7.00; that for `Cc1ncc(CN2CC[C@]3(C[C@@H]2C)OC[C@H](O)c2cc(Cl)sc23)cn1` [Compound 793] was 6.30 to 7.00; that for `C[C@H]1C[C@@]2(CCN1CC1CCN(S(C)(=O)=O)CC1)OC[C@H](O)c1cc(Cl)sc12` [Compound 796] was 6.30 to 7.00. Consider `COCCc1ncc(CN2CC[C@]3(C[C@@H]2C)OC[C@H](O)c2cc(Cl)sc23)cn1` [Compound 797], for which the pIC50 was 6.30 to 7.00. In the case of `C[C@H]1C[C@@]2(CCN1Cc1ccc(OCC(=O)N3CCOCC3)cc1)OC[C@H](O)c1cc(Cl)sc12` [Compound 798] it was above 7.00; in that of `CC(=O)Nc1ccc(CN2CC[C@]3(C[C@@H]2C)OC[C@H](O)c2cc(Cl)sc23)cc1` [Compound 799], above 7.00; in that of `C[C@H]1C[C@@]2(CCN1Cc1cnc(N3CCOCC3)nc1)OC[C@H](O)c1cc(Cl)sc12` [Compound 800], above 7.00. For the compound `C[C@H]1C[C@@]2(CCN1Cc1cccc(F)c1O)OC[C@H](O)c1cc(Cl)sc12` [Compound 801], the pIC50 is 6.00 to 6.30. In the case of `C[C@H]1C[C@@]2(CCN1Cc1ccc(S(C)(=O)=O)cc1)OC[C@H](O)c1cc(Cl)sc12` [Compound 802] it was 6.30 to 7.00.

`C[C@H]1C[C@@]2(CCN1Cc1cccc(OCCO)c1)OC[C@H](O)c1cc(Cl)sc12` [Compound 803]: the pIC50 is 6.30 to 7.00. In the case of `COc1ccc(CN2CC[C@]3(C[C@@H]2C)OC[C@H](O)c2cc(Cl)sc23)cn1` [Compound 804] it was above 7.00.

On to `COc1nccc(CN2CC[C@]3(C[C@@H]2C)OC[C@H](O)c2cc(Cl)sc23)n1` [Compound 805], for which the pIC50 was 6.00 to 6.30. In the case of `COc1cncc(CN2CC[C@]3(C[C@@H]2C)OC[C@H](O)c2cc(Cl)sc23)c1` [Compound 806] it was 6.30 to 7.00; in that of `COc1ncc(CN2CC[C@]3(C[C@@H]2C)OC[C@H](O)c2cc(Cl)sc23)cn1` [Compound 807], 6.30 to 7.00. In the case of `Cc1cccc(CN2CC[C@]3(C[C@@H]2C)OC[C@H](O)c2cc(Cl)sc23)n1` [Compound 808] it was 6.00 to 6.30.

For the compound `Cc1cncc(CN2CC[C@]3(C[C@@H]2C)OC[C@H](O)c2cc(Cl)sc23)c1` [Compound 809], the pIC50 was 6.30 to 7.00. In the case of `C[C@H]1C[C@@]2(CCN1Cc1ccc(C(=O)N(C)C)cc1)OC[C@H](O)c1cc(Cl)sc12` [Compound 810] it was 6.30 to 7.00; in that of `C[C@H]1C[C@@]2(CCN1Cc1ccccn1)OC[C@H](O)c1cc(Cl)sc12` [Compound 811], 6.00 to 6.30. Turning to `CNC(=O)c1cccc(CN2CC[C@]3(C[C@@H]2C)OC[C@H](O)c2cc(Cl)sc23)c1` [Compound 812], the pIC50 was 6.30 to 7.00.

As to `C[C@H]1C[C@@]2(CCN1Cc1cn(C)nn1)OC[C@H](O)c1cc(Cl)sc12` [Compound 813], the pIC50 was 6.30 to 7.00.
